Source: patent EP3325012B1, “CINEOLE-CONTAINING COMPOSITION FOR TREATING NOSE POLYPS” (Maria Clementine Martin Klosterfrau Vertriebsgesellschaft …, priority 2015, dated 2017)

What was measured:
[1] = system: GSK-3; assay: Immunohistochemistry, subcellular (endolysosomal) localisation of GSK-3; assay type: cell-based, Mensch; conditions: 100 µM, versus control medium (Figur 4B)
Excerpt: Frische eingefrorene Gewebeschnitte wurden für 10 Minuten in 100 % Methanol fixiert. Nach einer Trocknungszeit von 10 Minuten wurden die Schnitte bei Raumtemperatur mit TBS (RT-TBS) gewaschen. Danach wurden die Gewebeproben zur Inhibition der endogenen Peroxidase 15 Minuten lang in RT-TBS mit 3 % H2O2 inkubiert.
Nach einem Waschschritt mit RT-TBS wurden die Proben in TBS mit 0,3 % Triton X für 15 Minuten permeabilisiert. Die Schnitte wurden in einer 1 : 100-Verdünnung mit Anti-Phospho-GSK-3-alpha/beta-Antikörpern (Cell Signaling Technology Inc., Massachusetts, USA, Katalognummern 5676 und 9331) über Nacht bei 4 °C inkubiert.
Am nächsten Tag wurden die Objektträger mit RT-TBS gewaschen und danach für 20 Minuten bei Raumtemperatur mit einem sekundären Polylink-Antikörper inkubiert. Nach dem Waschen mit RT-TBS wurden die Proben mit Peroxidase-Marker (HRP) (beide DCS Detection line, Innovative Diagnostik-Systeme, Hamburg, Deutschland) inkubiert.
Nach dem Waschen mit RT-PBS wurden die Schnitte in AEC (DCS Chromoline, Innovative Diagnostik-Systeme, Hamburg, Deutschland) inkubiert. Die Reaktion wurde mit RT-TBS gestoppt. Schließlich wurde eine Zellkernfärbung mit Mayer's Haematoxylin durchgeführt. Die Schnitte wurden in wässrigem "Dako Faramount Medium" (Dako North America Inc., Carpinteria, CA, USA) eingebettet. […]

[2] = system: proinflamatorischer Zytokine; conditions: inhalation; cited from earlier work

CC12CCC(CC1)C(C)(C)O2 [1,8-Cineol, 1,3,3-Trimethyl-2-oxabicyclo[2.2.2]octan]
endolysosomale Lokalisierung von GSK-3 [1]: verringerte endolysosomale Lokalisierung | proinflamatorische Zytokine [2]: deutlichen Reduktion
